Columns and labels:
Test in all cases: relative viability (nuclei count vs DMSO), 5 days (fraction); higher = more cells survive
AZD1208 + Phenformin = compound: N[C@@H]1CCCN(c2c(/C=C3\SC(=O)NC3=O)cccc2-c2ccccc2)C1 [AZD1208] + N=C(N)NC(=N)NCCc1ccccc1 [Phenformin] (partner 250 µM)
Procedure, shortened: (§1)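 Relative viability is defined as nuclei in treated wells over nuclei in vehicle wells. Duplicate plates were run and medians reported. Lung cancer cell lines in 1536-well plates were dosed by pin tool one day after seeding, with one drug or with a fixed anchor-drug dose plus five library-drug doses (not always all listed) in √10 steps, and nuclei were counted after 5 days.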

XMD14-99 + Tozasertib = compound: CN1CCN(CC1)C2=CC(=C(C=C2)NC3=NC(=C(S3)C(=O)C4=C(C=CC=C4Cl)Cl)N)OC [XMD14-99] + Cc1cc(Nc2cc(N3CCN(C)CC3)nc(Sc3ccc(NC(=O)C4CC4)cc3)n2)n[nH]1 [Tozasertib] (partner 0.1 µM)
Procedure, shortened: as §1

XMD14-99 + Dasatinib = compound: CN1CCN(CC1)C2=CC(=C(C=C2)NC3=NC(=C(S3)C(=O)C4=C(C=CC=C4Cl)Cl)N)OC [XMD14-99] + Cc1nc(Nc2ncc(C(=O)Nc3c(C)cccc3Cl)s2)cc(N2CCN(CCO)CC2)n1 [Dasatinib] (partner 0.075 µM)
Procedure, shortened: as §1

XMD14-99 + OSI-027 = compound: CN1CCN(CC1)C2=CC(=C(C=C2)NC3=NC(=C(S3)C(=O)C4=C(C=CC=C4Cl)Cl)N)OC [XMD14-99] + COc1cccc2cc(-c3nc([C@H]4CC[C@H](C(=O)O)CC4)n4ncnc(N)c34)[nH]c12 [OSI-027] (partner 0.5 µM)
Procedure, shortened: as §1

For UMC-11, the relative viability (AZD1208 + Phenformin; first compound 0.08 µM) was 0.312, the relative viability (AZD1208 + Phenformin; first compound 0.253 µM) was 0.355 and the relative viability (AZD1208 + Phenformin; first compound 0.8 µM) was 0.339. For the same cell line, the relative viability (AZD1208 + Phenformin; first compound 2.53 µM) was 0.388, the relative viability (AZD1208 + Phenformin; first compound 8 µM) was 0.306 and the relative viability (XMD14-99 + Tozasertib; first compound 0.08 µM) was 0.196. The relative viability (XMD14-99 + Tozasertib; first compound 0.8 µM) was 0.227, the relative viability (XMD14-99 + Tozasertib; first compound 2.53 µM) was 0.231 and the relative viability (XMD14-99 + Tozasertib; first compound 8 µM) was 0.23. It also gave a relative viability (XMD14-99 + Dasatinib; first compound 0.08 µM) of 0.441, a relative viability (XMD14-99 + Dasatinib; first compound 0.8 µM) of 0.478 and a relative viability (XMD14-99 + Dasatinib; first compound 2.53 µM) of 0.438. For the same cell line, the relative viability (XMD14-99 + Dasatinib; first compound 8 µM) was 0.344, the relative viability (XMD14-99 + OSI-027; first compound 0.08 µM) was 0.495 and the relative viability (XMD14-99 + OSI-027; first compound 0.8 µM) was 0.46. The relative viability (XMD14-99 + OSI-027; first compound 2.53 µM) was 0.421 and the relative viability (XMD14-99 + OSI-027; first compound 8 µM) was 0.359.

From the supplement of paper PMC10307832
